Entries after “also recorded” stand apart in the source; their conditions may differ.
Experiments:
[1] = test system: hepatic de novo lipogenesis; assay: Hepatic de novo lipogenesis (14C-glucose) in a murine model of NASH; type: in vivo, mouse; conditions: 100 mg/kg as printed in the text (Table 6 prints 60 mg/kg)
[2] = test system: human hematopoietic stem and progenitor cells; assay: Megakaryopoiesis and platelet production in cultured human hematopoietic stem and progenitor cells; type: cell-based; conditions: for Inhibition of megakaryocyte/platelet parameters after addition on day 6 of culture: 30 μM added on day 6; for Inhibition of megakaryopoiesis or platelet production (overall): 30 μM, cultured human HSPC; for CD41a+ mean fluorescence intensity (MFI), normalized / Normalized cell size (CD41a+) / CD41a CD42b+ counts (mature megakaryocytes), normalized to reference media control / CD41a+ cells (megakaryocytes), normalized to reference media control / Platelet counts, normalized to reference media control: added day 0, 8 days culture, I-32 and I-1 30 μM, ABT-737 6 μmol; for CD41a CD42b+ counts (mature megakaryocytes), normalized to reference media control / CD41a+ cells (megakaryocytes), normalized to reference media control / Platelet counts, normalized to reference media control: average±SD
Protocol: Materials and Methods. Hematopoietic stem and progenitor cells, identified as viable CD45+ CD34+ cells, were isolated from peripheral blood of healthy donors by a method known in the art (see Ivetic N, Nazi I, Karim N et al. Producing megakaryocytes from a human peripheral blood source. Transfusion 2016; 56:1066-74). These isolated cells were then analyzed for purity before being expanded for four days using a commercial supplement to increase their cell population. After expansion, the cells were analyzed for purity, washed, and stimulated with a saturating concentration of thrombopoietin (20 ng/mL) and stem cell factor (50 ng/mL) to begin megakaryopoiesis. Compound I-32 and Compound I-1 were added at this timepoint at a concentration of 30 μM. The cells were then cultured for 8 days to develop into megakaryocytes and analyzed via flow cytometry to assess their number, maturity, and platelet count as defined by CD41a, CD42b and Calcein-AM expression. In addition, Compound I-32 and Compound I-1 were added to cells during the later stages of development (day 6) to assess their impact on maturation. ABT-737 (6 μmol) was used as a positive control and a DMSO vehicle control (<0.15% v/v) was the negative control. All counts are normalized to a media control (PBS) as a reference for basic cell growth.
Statistical analysis. Statistical analyses were carried out by comparing effects on measured parameters in comparison to vehicle control. A value of […] (One-way ANOVA multiple comparisons) was considered as significant.
Two isolations were performed from two healthy donors (2 males) and used to assess the impacts of Compound I-32 and Compound I-1. For one of the isolations, enough expanded hematopoietic stem and progenitor cells (HSPC) (Experiment 1) were obtained so that the addition of the compounds on day 6 was also performed along with the initial experiment. For the other experiment (Experiment 2) only an 8-day incubation was performed.
All results were normalized to a reference media (PBS) and Compound I-32 and Compound I-1 were compared to a vehicle control. Reference compound ABT-737 is a known BCL-2 inhibitor and was used a positive control. Results in FIGS. 25A-25J are the summary of a single experiments conducted in triplicates. No statistical inhibition was detected for Compound I-32 or Compound I-1 (p>0.05 one-way ANOVA).

[3] = biological target: TNIK (Homo sapiens (Human), UniProt Q9UKE5); assay: Wild type kinase screen: TNIK; type: biochemical; conditions: compound at 10 μM, 10 μM ATP, Data 1 and Data 2 duplicates
Sequence of TNIK (Q9UKE5 whole entry, species assumed): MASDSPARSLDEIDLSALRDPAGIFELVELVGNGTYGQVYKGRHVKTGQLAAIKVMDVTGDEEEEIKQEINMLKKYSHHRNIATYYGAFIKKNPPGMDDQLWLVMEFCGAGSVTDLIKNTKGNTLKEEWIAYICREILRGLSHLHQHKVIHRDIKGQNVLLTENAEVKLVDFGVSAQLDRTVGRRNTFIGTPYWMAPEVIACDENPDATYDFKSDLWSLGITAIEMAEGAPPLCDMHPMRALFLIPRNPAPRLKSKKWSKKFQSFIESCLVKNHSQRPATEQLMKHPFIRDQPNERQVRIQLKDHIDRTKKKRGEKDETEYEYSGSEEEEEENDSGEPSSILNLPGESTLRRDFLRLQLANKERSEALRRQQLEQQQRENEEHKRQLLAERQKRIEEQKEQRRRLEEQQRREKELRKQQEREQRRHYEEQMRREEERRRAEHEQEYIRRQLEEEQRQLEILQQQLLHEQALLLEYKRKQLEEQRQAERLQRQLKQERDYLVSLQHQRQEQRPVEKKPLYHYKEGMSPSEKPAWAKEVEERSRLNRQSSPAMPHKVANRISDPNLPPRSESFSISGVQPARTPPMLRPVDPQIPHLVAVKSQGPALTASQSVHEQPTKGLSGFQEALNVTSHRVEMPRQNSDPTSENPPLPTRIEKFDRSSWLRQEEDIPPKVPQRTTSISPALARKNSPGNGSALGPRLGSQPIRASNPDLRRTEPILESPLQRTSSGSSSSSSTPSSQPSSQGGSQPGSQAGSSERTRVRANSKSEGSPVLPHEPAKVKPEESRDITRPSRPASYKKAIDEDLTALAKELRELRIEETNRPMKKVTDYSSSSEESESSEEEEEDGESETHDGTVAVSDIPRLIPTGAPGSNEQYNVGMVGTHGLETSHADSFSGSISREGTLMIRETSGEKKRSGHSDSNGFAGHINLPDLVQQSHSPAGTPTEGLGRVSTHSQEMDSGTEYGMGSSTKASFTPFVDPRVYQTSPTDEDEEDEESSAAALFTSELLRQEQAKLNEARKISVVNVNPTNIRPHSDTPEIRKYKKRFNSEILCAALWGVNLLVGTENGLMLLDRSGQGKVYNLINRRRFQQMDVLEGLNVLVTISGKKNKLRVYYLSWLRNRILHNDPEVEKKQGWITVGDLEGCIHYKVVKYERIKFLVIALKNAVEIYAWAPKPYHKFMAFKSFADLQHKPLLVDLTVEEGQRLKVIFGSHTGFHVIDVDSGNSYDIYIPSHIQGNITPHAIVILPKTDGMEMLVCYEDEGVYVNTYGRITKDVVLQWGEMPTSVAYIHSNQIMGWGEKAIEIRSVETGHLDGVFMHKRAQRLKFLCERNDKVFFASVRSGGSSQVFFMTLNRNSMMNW

[4] = test system: C57BL6/J mice; assay: Indirect calorimetry (CLAMS) in fructose-fed C57BL6/J mice; type: in vivo, mouse; conditions: 100 mg/kg oral gavage
Protocol: Materials and Methods. All experiments were carried out using the methods approved by the Animal Research Ethics Board at McMaster University, Canada (Steinberg Laboratory Animal Utilization Protocol #16-12-42). 8-Week-old male C57BL6/J mice were ordered from Jackson Laboratory, Bar Harbor, Maine and housed at the McMaster University Central Animal Facility. Animals were housed in the ventilated cages racks system and provided with ad libitum access to normal chow diet (Teklad 8640 22/5 rodent diet, procured from Envigo, Mississauga ON) and water supplemented with fructose (30% weight/volume, made fresh weekly) for at least 2-weeks before testing commenced. A 12-hour light/dark cycle and a temperature of 23±2° C. were maintained throughout the animal housing. Data were analyzed using one-way analyses of variance followed by a Tukey's multiple comparisons post hoc test where appropriate. All statistical analysis was carried out using GraphPad Prism 8 software. A p-value of less than or equal 0.05 was considered significant.
Experimental and Results. Respiratory Exchange Ratio (RER) and related metabolic parameters were measured using the Comprehensive Lab Animal Monitoring System (CLAMS, Columbus Instruments, Columbus, Ohio). Animals were placed in CLAMS and allowed ad libitum access to normal chow diet and water supplemented with fructose (30% weight/volume) for at least 24 hours before the experiment began. At 5:30 p.m. chow diet was removed and water containing 30% fructose was replaced with normal tap water. Animals were fasted overnight until food and 30% fructose water were made accessible the next day at 7:30 a.m. (14 hours total). Animals were allowed to feed ad libitum for ˜2 hours. RER was monitored and those animals with RER values >1 were administered either vehicle (1.5% Carboxymethyl cellulose and 0.2% Tween 20) alone or vehicle containing Compound I-1 or Compound I-32 at a dose of 100 mg/kg via oral gavage. Animals remained in the metabolic cages and RER, activity level, locomotor activity, and food intake were monitored for 24 hours. Metabolic parameters were calculated using Oxymax software included with Comprehensive Lab Animal Monitoring System (CLAMS). RER was calculated as the […] given by the following equation: […]
Locomotor activity was calculated as the total number of beam breaks in each cage over a 24-hour period. The heat (calorific value, CV) was calculated by the following equation: […]

[5] = Synthesis of CoA derivatives in rat liver microsomes (LCMS detection); type: in vitro ADME; conditions: 1 mM substrate, 30 min sample
Protocol: Reaction products were eluted using the gradient shown below: […]
Formation and detection of the Co-A derivatives of Compounds 1-32, 1-61, I-1 or III-1 in rat liver microsomes: 1 mM of each compound (Compounds I-32, I-61, I-1 or III-1) or palmitic acid (control) were used as substrate in the rat microsomal preparation for 0 and 30 min and extracted as described above. […] Further confirmation was obtained by exposing the compound to a collision energy causing the characteristic neutral loss of 3′-phosphonucleoside diphosphate (507 Da) producing the fragment ion 499.3 m/z. There was no evidence of the CoA derivative in the time 0 min sample.

[6] = biological target: BMX/ETK (Homo sapiens (Human), UniProt P51813); assay: Wild type kinase screen: BMX/ETK; type: biochemical; conditions: compound at 10 μM, 10 μM ATP, Data 1 and Data 2 duplicates
Sequence of BMX/ETK (P51813 whole entry): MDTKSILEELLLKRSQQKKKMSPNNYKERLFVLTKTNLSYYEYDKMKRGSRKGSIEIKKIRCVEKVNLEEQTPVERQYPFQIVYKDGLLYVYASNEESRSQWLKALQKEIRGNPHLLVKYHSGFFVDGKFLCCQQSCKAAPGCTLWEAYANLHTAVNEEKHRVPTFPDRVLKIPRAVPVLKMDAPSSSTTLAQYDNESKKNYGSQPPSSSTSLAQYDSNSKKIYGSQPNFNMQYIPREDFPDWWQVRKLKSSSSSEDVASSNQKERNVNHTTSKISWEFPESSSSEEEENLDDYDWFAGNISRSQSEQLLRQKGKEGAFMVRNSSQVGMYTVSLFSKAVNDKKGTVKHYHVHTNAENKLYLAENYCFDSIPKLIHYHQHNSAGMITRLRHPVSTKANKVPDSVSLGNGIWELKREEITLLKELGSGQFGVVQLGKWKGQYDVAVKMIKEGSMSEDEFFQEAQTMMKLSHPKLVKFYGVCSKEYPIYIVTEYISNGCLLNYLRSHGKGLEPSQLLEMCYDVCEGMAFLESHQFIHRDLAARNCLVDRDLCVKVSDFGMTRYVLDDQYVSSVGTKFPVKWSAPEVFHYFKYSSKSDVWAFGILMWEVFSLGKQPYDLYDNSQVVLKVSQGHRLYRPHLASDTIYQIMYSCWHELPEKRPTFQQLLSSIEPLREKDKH

| SMILES | Inhibition of liver lipogenesis [1] [%] | Inhibition of megakaryocyte/platelet parameters after addition on day 6 of culture [2] | Inhibition of megakaryopoiesis or platelet production (overall) [2] | CD41a+ mean fluorescence intensity (MFI), normalized [2] [%] | Normalized cell size (CD41a+) [2] [%] | CD41a CD42b+ counts (mature megakaryocytes), normalized to reference media control [2] [%] | CD41a+ cells (megakaryocytes), normalized to reference media control [2] [%] | Platelet counts, normalized to reference media control [2] [%] | % Enzyme Activity (relative to DMSO controls) [3] [%] | Duration of the RER reduction [4] [h] | Respiratory exchange ratio (RER) compared to vehicle treated group [4] | Time to detection of the RER reduction after treatment [4] [h] | Formation of the CoA derivative (LCMS detection, fragmentation confirmation) [5] | % Enzyme Activity (relative to DMSO controls) [6] [%] |
| --- | --- | --- | --- | --- | --- | --- | --- | --- | --- | --- | --- | --- | --- | --- |
| CC(C)(CCCCc1ccc(CCCCC(C)(C)C(=O)O)cc1)C(=O)O [Compound I-1, 6-[4-(5-carboxy-5-methylhexyl)-phenyl]-2,2-dimethylhexanoic acid] | 69 | no inhibition detected | do not significantly affect; also recorded: do not inhibit | 109±10 | 98±3 | 97±9 | 94±2 | 94±12 | 101.58 | 6 | significant reduction | ≤ 1 | detected | 51.72 |
| CC(C)(CCCCc1cccc(CCCCC(C)(C)C(=O)O)c1)C(=O)O [Compound I-32, 6-[3-(5-carboxy-5-methylhexyl)-phenyl]-2,2-dimethylhexanoic acid] | ~50 | no inhibition detected | do not significantly affect; also recorded: do not inhibit | 110±11 | 94±3 | 106±17 | 98±3 | 134±34 | 99.68 | 6 | significant reduction | ≤ 1 | detected | 52.97 |

Reference: patent US20240398737A1, “FUNCTIONALIZED LONG-CHAIN HYDROCARBON MONO- AND DI-CARBOXYLIC ACIDS AND DERIVATIVES THEREOF, AND THEIR USE FOR THE PREVENTION OR TREATMENT OF DISEASE” (Espervita Therapeutics, Inc., priority 2021, published 2024)
